Experiments:
[1] = test system: synthesis of LTB4 by rat glycogen-elicited polymorphonuclear leukocytes (PMN); test: inhibition of LTB4 synthesis by rat glycogen-elicited PMN (Example 72); type: cell-based, rat (female Wistar); details: Leukocyte, at 10 mM, negative number denotes potentiation
How it was run: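 Peritoneal PMNs from female Wistar rats 18-24 h after i.p. glycogen, 2.0×10^7 cells/mL in HBSS with Ca/Mg and 10 mM L-cysteine; compound preincubated 10 min at 37° C, then A23187 […] added for 10 min. Supernatant [3H]-LTB4 quantified by radio-HPLC versus drug-free stimulated cells; percent inhibition or IC50.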

[2] = test system: lipoxygenase pathway (LTC4); test: in vivo murine zymosan peritonitis assay, LTC4 (Example 76); set-up: species or system mouse (male CD-1); details: 50 mg/kg p.o.; negative values denote potentiation
Method: (§1) The compounds of the invention are evaluated for their ability to inhibit the lipoxygenase and/or cyclooxygenase pathways of arachidonic acid metabolism in the in vivo murine zymosan peritonitis assay.
(§2) This assay is carried out as follows:
(§3) Male CD-1 mice (8 weeks old) are placed in plastic boxes in groups of six. Animals are injected with 1 mL i.p. of either 1% zymosan in pyrogen free 0.9% saline or saline (unstimulated control). Compounds are dosed orally 1 hour prior to zymosan injection. Twenty minutes after zymosan injection, the mice are asphyxiated by CO2 inhalation and tile peritoneal cavity is lavaged with 2 mL ice cold Hanks Balanced Salt Solution (HBSS) without CaCl2, MgSO4 ·7H2 O and MgCl2 ·6H2 O. Peritoneal lavage fluid from each mouse is removed by syringe and placed in 5 mL plastic test tubes put on ice and volume is noted. […]
(§4) The total metabolite level in lavage fluid/mouse is calculated and the significance is determined by a one-way analysis of variance with LSD comparisons to control (p<0.05). Drug effects are expressed as a percent change from control values.

[3] = test system: cyclooxygenase pathway (6-keto-PGF1a); test: in vivo murine zymosan peritonitis assay, 6-keto-PGF1a (Example 76); set-up: species or system mouse (male CD-1); details: 50 mg/kg p.o.; negative values denote potentiation
Method: as §1, §2, §3, §4

[4] = test system: cyclooxygenase (PGE2 synthesis) in rat polymorphonuclear leukocytes (PMN); test: inhibition of PGE2 synthesis (cyclooxygenase) by rat glycogen-elicited PMN (Example 73); type: cell-based, rat (female Wistar); details: Leukocyte, at 10 mM, * (negative) denotes a potentiation, read-out: % Inhibition (PGE2 synthesis)
How it was run: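 Glycogen-elicited peritoneal PMNs from female Wistar rats, 2.0×10^7 cells/mL in HBSS with Ca/Mg and 10 mM L-cysteine, preincubated with drug 10 min at 37° C. Stimulated 10 min with A23187 plus [3H]-AA and unlabeled AA (stocks 1 mM); supernatant [3H]-PGE2 measured by reverse-phase HPLC co-chromatographed with reference standard.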

carrageenan paw edema = test: rat carrageenan paw edema assay (Example 78); type: in vivo, rat (male Sprague-Dawley); details: 50 mg/kg peroral; 3 hours after carrageenan
Method: The compounds of the invention are further tested in the rat carrageenan paw edema assay to determine their ability to inhibit the acute inflammatory response.
This assay is carried out as follows: 140-180 g Male Sprague-Dawley rats, in groups of 6 animals are injected subcutaneously in the right paw with 0.1 mL of 1% carrageenan at zero time. Mercury plethysmographic readings (mL) of the paw are made at zero time and 3 hours later. Test compounds are suspended or dissolved in 0.5% methylcellulose and given perorally 1 hour prior to carrageenan administration.
The increase in paw volume (edema in mL) produced by the carrageenan is measured. Paw edema is calculated (3 hour volume minus zero time volume), and percent inhibition of edema is determined. Unpaired Student's t-test is used to determine statistical significance.

Row | SMILES | inhibition at 10000 µM [1] | % Inhibition LTC4 [2] | % Inhibition 6-keto-PGF [3] | inhibition at 10000 µM [4] | % Inhibition 50 mg/kg (peroral) (carrageenan paw edema)
1 | CCC1(CC(=O)O)CCCc2c1[nH]c1ccc(OCc3ccc4ccccc4n3)cc21 (stereo not shown) [Example 11, 1-Ethyl-2,3,4,9-tetrahydro-6-(2-quinolinylmethoxy)-1H-carbazole-1-acetic acid] | 95% | -49% | 47% | 80% | +1%
2 | CC1(CC(=O)O)OCCc2c1[nH]c1ccc(OCc3ccc4ccccc4n3)cc21 (stereo not shown) [Example 10, 1-Methyl-1,3,4,9-tetrahydro-6-(2-quinolinylmethoxy)pyrano[3.4-b]indole-1-acetic acid] | 91% | 11% | -5% | -41% | 48%
